IC50 data for 33 compounds are collected here from patent US9637491B2, “Pyrazolo[4,3-D]pyrimidines as kinase inhibitors” (Origenis GmbH, priority 2012, dated 2017).

For the assay, the target named is T1, SYK kinase (Homo sapiens, UniProt P43405).
T1 construct: purchased Invitrogen, Carlsbad
In words: SYK assay (OMNIA Kinase Assay, Invitrogen). The class given is biochemical. Particulars: SYK Activities; 1 mM ATP, 10 μM Omnia Peptide Substrate Tyr 7, 30° C. On the procedure:
In the assay OMNIA® KINASE ASSAY by Invitrogen Corporation (Carlsbad) the effect of invention of a compound on the phosphorylation is determined by measurement of fluorescence intensity of a chelation-enhanced fluorophore called SOX. Upon phosphorylation of the peptide by the kinase of interest, Mg2+ is chelated to form a bridge between the SOX moiety and the phosphate group that is transferred to the specific tyrosine on the peptide. The fluorescence intensity is directly proportional to the amount of peptide phosphorylation.
To the wells of an 384 well small volume plate (Greiner, Frickenhausen) are added (i) the compound under test in 5% DMSO/distilled water (2 μl), (ii) 16 μl of the master mix containing ATP, DTT, Kinase Reaction Buffer, Omina Peptide Substrate Tyr 7 resulting in a final concentration of 1 mM ATP, 0.2 mM DTT and 10 μM Peptide Substrate. The Master Mix and the assay plate was incubated to reaction temperature before the measurement (30° C.). The reaction was started with addition of (iii) 2 μl 4 μg/ml SYK kinase (Invitrogen, Carlsbad). During measurement fluorescence intensitiy readings were collected using a TECAN M1000 at a wavelength of λex 360/λem 485 nm every 30 s for 30 minutes. The reaction velocity was plotted versus the inhibitor concentration to determine the IC50 using XLFit 5.0 (IDBS, Guildford) to fit to a sigmoidal dose response curve.
Take `O=C1OCCN1c1ccc(Nc2nc(-c3ccco3)nc3cn[nH]c23)cc1` [Example 115, 3-(4-((5-(furan-2-yl)-1H-pyrazolo[4,3-d]pyrimidin-7-yl)amino)phenyl)oxazolidin-2-one]: the 50% inhibitory concentration (IC50) (in general, the concentration that inhibits the measured activity by half) was 10 to 100 nM.
Consider `c1coc(-c2nc(Nc3cnn(C4CCOCC4)c3)c3[nH]ncc3n2)c1` [Example 117, 5-(furan-2-yl)-N-(1-(tetrahydro-2H-pyran-4-yl)-1H-pyrazol-4-yl)-1H-pyrazolo[4,3-d]pyrimidin-7-amine], for which the IC50 lay within 10 to 100 nM.
Under `c1nn(C2CCOCC2)cc1Nc1nc(C2CC2)nc2cn[nH]c12` [Example 118, 5-cyclopropyl-N-(1-(tetrahydro-2H-pyran-4-yl)-1H-pyrazol-4-yl)-1H-pyrazolo[4,3-d]pyrimidin-7-amine] stands 10 to 100 nM; under `c1nn(C2CCOCC2)cc1Nc1nc(C2CCC2)nc2cn[nH]c12` [Example 119, 5-cyclobutyl-N-(1-(tetrahydro-2H-pyran-4-yl)-1H-pyrazol-4-yl)-1H-pyrazolo[4,3-d]pyrimidin-7-amine], 10 to 100 nM; under `c1cc(N2CCOCC2)ccc1Nc1nc(C2CCC2)nc2cn[nH]c12` [Example 120, 5-cyclobutyl-N-(4-morpholinophenyl)-1H-pyrazolo[4,3-d]pyrimidin-7-amine], under 10 nM.
Take `Cn1cc(-c2nc(Nc3ccc(N4CCOCC4)cc3)c3[nH]ncc3n2)cn1` [Example 121, 5-(1-methyl-1H-pyrazol-4-yl)-N-(4-morpholinophenyl)-1H-pyrazolo[4,3-d]pyrimidin-7-amine]: the half-inhibitory concentration (IC50) lay in the range of 10 to 100 nM.
With `Cn1cc(-c2nc(Nc3cnn(C4CCOCC4)c3)c3[nH]ncc3n2)cn1` [Example 122, 5-(1-methyl-1H-pyrazol-4-yl)-N-(1-(tetrahydro-2H-pyran-4-yl)-1H-pyrazol-4-yl)-1H-pyrazolo[4,3-d]pyrimidin-7-amine], the IC50 lay in the range of 10 to 100 nM.
In the case of `c1cncc(-c2nc(Nc3ccc(N4CCOCC4)nc3)c3[nH]ncc3n2)c1` [Example 126, N-(6-morpholinopyridin-3-yl)-5-(pyridin-3-yl)-1H-pyrazolo[4,3-d]pyrimidin-7-amine] it was 100 to 1000 nM; in that of `c1nc(-c2nc(Nc3cnn(C4CCOCC4)c3)c3[nH]ncc3n2)co1` [Example 127, 5-(oxazol-4-yl)-N-(1-(tetrahydro-2H-pyran-4-yl)-1H-pyrazol-4-yl)-1H-pyrazolo[4,3-d]pyrimidin-7-amine], 100 to 1000 nM; in that of `COCCn1cc(Nc2nc(-c3cocn3)nc3cn[nH]c23)cn1` [Example 128, N-(1-(2-methoxyethyl)-1H-pyrazol-4-yl)-5-(oxazol-4-yl)-1H-pyrazolo[4,3-d]pyrimidin-7-amine], 100 to 1000 nM.
In turn, `CN1CCC(n2cc(Nc3nc(-c4cocn4)nc4cn[nH]c34)cn2)CC1` [Example 129, N-(1-(1-methylpiperidin-4-yl)-1H-pyrazol-4-yl)-5-(oxazol-4-yl)-1H-pyrazolo[4,3-d]pyrimidin-7-amine] yielded an IC50 of 100 to 1000 nM.
Regarding `CC(=O)N1CCC(n2cc(Nc3nc(-c4cocn4)nc4cn[nH]c34)cn2)CC1` [Example 130, 1-(4-(4-((5-(oxazol-4-yl)-1H-pyrazolo[4,3-d]pyrimidin-7-yl)amino)-1H-pyrazol-1-yl)piperidin-1-yl)ethan-1-one], the 50% inhibitory concentration (IC50) lay within 100 to 1000 nM.
`COCCn1cc(Nc2nc(-c3ccc4cn[nH]c4c3)nc3cn[nH]c23)cn1` [Example 131, 5-(1H-indazol-6-yl)-N-(1-(2-methoxyethyl)-1H-pyrazol-4-yl)-1H-pyrazolo[4,3-d]pyrimidin-7-amine] gave an IC50 of 10 to 100 nM.
`CN1CCC(n2cc(Nc3nc(-c4ccc5cn[nH]c5c4)nc4cn[nH]c34)cn2)CC1` [Example 132, 5-(1H-indazol-6-yl)-N-(1-(1-methylpiperidin-4-yl)-1H-pyrazol-4-yl)-1H-pyrazolo[4,3-d]pyrimidin-7-amine] gave an IC50 of 10 to 100 nM.
On to `CC(=O)N1CCC(n2cc(Nc3nc(-c4ccc5cn[nH]c5c4)nc4cn[nH]c34)cn2)CC1` [Example 133, 1-(4-(4-((5-(1H-indazol-6-yl)-1H-pyrazolo[4,3-d]pyrimidin-7-yl)amino)-1H-pyrazol-1-yl)piperidin-1-yl)ethan-1-one], for which the half-maximal inhibitory concentration (IC50) lay within 10 to 100 nM.
Under `c1nn(C2CCOCC2)cc1Nc1nc(-c2ccc3cn[nH]c3c2)nc2cn[nH]c12` [Example 134, 5-(1H-indazol-6-yl)-N-(1-(tetrahydro-2H-pyran-4-yl)-1H-pyrazol-4-yl)-1H-pyrazolo[4,3-d]pyrimidin-7-amine] stands under 10 nM.
Regarding `c1cc(-c2nc(Nc3cnn(C4CCOCC4)c3)c3[nH]ncc3n2)co1` [Example 146, 5-(furan-3-yl)-N-(1-(tetrahydro-2H-pyran-4-yl)-1H-pyrazol-4-yl)-1H-pyrazolo[4,3-d]pyrimidin-7-amine], the half-inhibitory concentration (IC50) was under 10 nM.
`c1cncc(-c2nc(Nc3ccc(N4CCOCC4)cc3)c3n[nH]cc3n2)c1` [Example 162, N-(4-morpholinophenyl)-5-(pyridin-3-yl)-2H-pyrazolo[4,3-d]pyrimidin-7-amine]: the IC50 lay within 100 to 1000 nM.
Under `Cn1ccc(-c2nc(Nc3ccc(N4CCOCC4)cc3)c3[nH]ncc3n2)n1` [Example 175, 5-(1-methyl-1H-pyrazol-3-yl)-N-(4-morpholinophenyl)-1H-pyrazolo[4,3-d]pyrimidin-7-amine] stands 100 to 1000 nM; under `CC(C)(C#N)n1cc(Nc2nc(C3CC3)nc3cn[nH]c23)cn1` [Example 177, 2-(4-((5-cyclopropyl-1H-pyrazolo[4,3-d]pyrimidin-7-yl)amino)-1H-pyrazol-1-yl)-2-methylpropanenitrile], 100 to 1000 nM.
Under `c1nn(C2CCOCC2)cc1Nc1nc(-c2ccc3[nH]ncc3c2)nc2cn[nH]c12` [Example 178, 5-(1H-indazol-5-yl)-N-(1-(tetrahydro-2H-pyran-4-yl)-1H-pyrazol-4-yl)-1H-pyrazolo[4,3-d]pyrimidin-7-amine] stands 10 to 100 nM; under `c1cc(N2CCOCC2)ccc1Nc1nc(-c2ccc3[nH]ncc3c2)nc2cn[nH]c12` [Example 179, 5-(1H-indazol-5-yl)-N-(4-morpholinophenyl)-1H-pyrazolo[4,3-d]pyrimidin-7-amine], 10 to 100 nM; under `CC(=O)N1CCN(c2ccc(Nc3nc(C(C)C)nc4cn[nH]c34)cc2)CC1` [Example 180, 1-(4-(4-((5-isopropyl-1H-pyrazolo[4,3-d]pyrimidin-7-yl)amino)phenyl)piperazin-1-yl)ethan-1-one], 100 to 1000 nM.
Turning to `CC(C)c1nc(Nc2ccc(N3CCOCC3)cc2)c2[nH]ncc2n1` [Example 181, 5-isopropyl-N-(4-morpholinophenyl)-1H-pyrazolo[4,3-d]pyrimidin-7-amine], the IC50 fell in the range of 100 to 1000 nM.
As for `CC(C)c1nc(Nc2cnn(C3CCOCC3)c2)c2[nH]ncc2n1` [Example 182, 5-isopropyl-N-(1-(tetrahydro-2H-pyran-4-yl)-1H-pyrazol-4-yl)-1H-pyrazolo[4,3-d]pyrimidin-7-amine], the IC50 lay in the range of 100 to 1000 nM.
Compound `CC(C)c1nc(Nc2cnn(C3CCN(C)CC3)c2)c2[nH]ncc2n1` [Example 184, 5-isopropyl-N-(1-(1-methylpiperidin-4-yl)-1H-pyrazol-4-yl)-1H-pyrazolo[4,3-d]pyrimidin-7-amine] had an IC50 of 100 to 1000 nM.
The compound `COCCn1cc(Nc2nc(C(C)C)nc3cn[nH]c23)cn1` [Example 185, 5-isopropyl-N-(1-(2-methoxyethyl)-1H-pyrazol-4-yl)-1H-pyrazolo[4,3-d]pyrimidin-7-amine] gave a concentration for half-maximal inhibition (IC50) of 100 to 1000 nM.
`CC(=O)N1CCC(n2cc(Nc3nc(C(C)C)nc4cn[nH]c34)cn2)CC1` [Example 186, 1-(4-(4-((5-isopropyl-1H-pyrazolo[4,3-d]pyrimidin-7-yl)amino)-1H-pyrazol-1-yl)piperidin-1-yl)ethan-1-one] returned a half-maximal inhibitory concentration (IC50) of 100 to 1000 nM.
In the case of `CC(=O)N1CCN(c2ccc(Nc3nc(-c4cnn(C)c4)nc4cn[nH]c34)cc2)CC1` [Example 187, 1-(4-(4-((5-(1-methyl-1H-pyrazol-4-yl)-1H-pyrazolo[4,3-d]pyrimidin-7-yl)amino)phenyl)piperazin-1-yl)ethan-1-one] it was 10 to 100 nM.
The compound `COCCn1cc(Nc2nc(-c3cnn(C)c3)nc3cn[nH]c23)cn1` [Example 188, N-(1-(2-methoxyethyl)-1H-pyrazol-4-yl)-5-(1-methyl-1H-pyrazol-4-yl)-1H-pyrazolo[4,3-d]pyrimidin-7-amine] came in with an IC50 of 100 to 1000 nM.
Compound `CC(=O)N1CCC(n2cc(Nc3nc(-c4cnn(C)c4)nc4cn[nH]c34)cn2)CC1` [Example 189, 1-(4-(4-((5-(1-methyl-1H-pyrazol-4-yl)-1H-pyrazolo[4,3-d]pyrimidin-7-yl)amino)-1H-pyrazol-1-yl)piperidin-1-yl)ethan-1-one] showed a half-inhibitory concentration (IC50) of under 10 nM.
`CN1CCC(n2cc(Nc3nc(-c4cnn(C)c4)nc4cn[nH]c34)cn2)CC1` [Example 190, 5-(1-methyl-1H-pyrazol-4-yl)-N-(1-(1-methylpiperidin-4-yl)-1H-pyrazol-4-yl)-1H-pyrazolo[4,3-d]pyrimidin-7-amine]: the IC50 was 10 to 100 nM.
`COCCn1cc(Nc2nc(C3CCC3)nc3cn[nH]c23)cn1` [Example 191, 5-cyclobutyl-N-(1-(2-methoxyethyl)-1H-pyrazol-4-yl)-1H-pyrazolo[4,3-d]pyrimidin-7-amine] registered an IC50 of 10 to 100 nM.
